# Assays:
# NFκB-dependent promoter = experiment: Transient transfection of pNFkB-Luc into HT1080 p21-9 cells, firefly luciferase; assay type: cell-based, human; conditions: different concentrations of IPTG
# Text: To determine if IPTG-inducible p21 expression in HT1080 p21-9 cells stimulates the transcriptional activity of NFκB, we have used transient transfection assays to investigate the effect of p21 induction on luciferase expression from the plasmid pNFkB-Luc, commercially available from Stratagene. This plasmid expresses firefly luciferase from an artificial promoter containing five tandemly repeated NFκB consensus sequences. We have also generated by PCR a version of the same promoter that contains only one NFκB consensus sequence using primers identified as SEQ ID Nos. 80 and 83. The sequences of these two promoters are identified as SEQ ID NOs. 78 and 79.
# The ability of p21 to induce these promoters was tested by transient transfection assays, as described in Example 8, using different concentrations of IPTG that induce p21 to different levels.
# This plasmid is referred to below as IKK. To determine the effect of p300/CBP inhibition on luciferase expression from pNFkB-Luc, the latter plasmid was similarly mixed in another assay with a vector expressing a truncated gene for adenoviral E1A protein with a C-terminal deletion {ΔCR2 (120-140)}. […] The E1AΔCR2 and E1AΔN/ΔCR2 constructs were provided by Dr. V. Ogryzko (NICHHD, NIH). […] The firefly luciferase activity was measured and normalized to Renilla luciferase activity measured (in the absence of IPTG) in each transfected sample.
# C8 cells = experiment: Apoptosis assay in serum-starved C8 cells; assay type: cell-based, mouse; conditions: addition of IPTG by itself
# Experimental: To verify the induction of secreted mitogenic and anti-apoptotic factors by p21, conditioned media from IPTG-treated HT1080 p21-9 cells were tested to investigate whether they would have an effect on cell growth and apoptosis. In these experiments, conditioned media were prepared by plating 10^6 HT1080 p21-9 cells per 15 cm plate in the presence of DMEM/10% FCS. The next day, IPTG was added to a final concentration of 50 μM, and this media was replaced three days later with DMEM supplemented with 0.5% FCS and 50 μM IPTG. Two days later (days 3-5 of IPTG treatment), this conditioned media was collected and stored at 4° C. up to 15 days before use. Control media were prepared by adding IPTG-free DMEM/0.5% FCS to untreated cells grown to the same density as IPTG-treated cells and collecting the media two days thereafter.
# The effect of this conditioned media on apoptosis was also determined. […] Apoptosis was analyzed by plating 3×10^5 C8 cells per 6-cm plate, and replacing the media on the following day with fresh media supplemented with 0.4% serum or with conditioned media (no fresh serum added). DNA content analysis and DAPI staining were carried out after 24 hrs and 48 hrs, and relative cell numbers were measured by methylene blue staining (Perry et al., 1992, Mutat. Res. 276: 189-197) after 48 hrs in low-serum media.
# HT1080 p16-5 cells = experiment: Cell cycle distribution by FACS analysis of DNA content; assay type: cell-based, human; conditions: 50 μM IPTG, 24 hrs
# Experimental: (§1) This cell population was subcloned, and 20 clonal cell lines were isolated and tested for IPTG-inducible growth inhibition. Cell line showing the strongest growth inhibition was designated HT1080 p16-5. This cell line has been deposited on Jan. 31, 2002 in the American Type Culture Collection (A.T.C.C.), Manassas, Va. and given Accession Number PTA-4020. […] Fractions of cells in different phases of the cell cycle were determined using FACS analysis of DNA content after staining with propidium iodide as described by Jordan et al. (1996, Cancer Res. 56:816-825) using Becton Dickinson FACSort. Cell cycle distribution stabilized after 24 hrs of IPTG treatment, by which time 93% of IPTG-treated cells were arrested in G1. Such G1 arrest is expected from the inhibition of CDK4/6 by p16.
# HT1080 p27-2 cells = experiment: as above; assay type: cell-based, human; conditions: 50 μM IPTG, 24 hrs
# Experimental: as §1
# Similarly, the G418-selected population of LNp27RO2 transduced cells was subcloned, and 38 clonal cell lines were isolated and tested for IPTG-inducible growth inhibition. Cell line showing the strongest growth inhibition was designated HT1080 p27-2. This cell line has been deposited on Jan. 31, 2002 in the American Type Culture Collection (A.T.C .C.), Manassas, Va. and given Accession Number PTA-4021. […] Cell cycle distribution stabilized after 24 hrs of IPTG treatment, by which time 89% of IPTG-treated cells were arrested in G1. Such G1 arrest is expected from the inhibition of CDK4/6 by p16.
# p21 = p21 protein level after IPTG induction (ELISA); assay type: cell-based, human
# Experimental: FIG. 2A is a graph of the time course of p21 induction after the addition of 50 μM IPTG, where p21 levels were determined by ELISA.
# p21 expression from the LNp21CO3 vector in HT1080 p21-9 cells was induced by culturing the cells in DMEM medium containing 10% fetal calf serum (Hyclone, Logan, Utah) and IPTG. […] Upon removing the cells from IPTG-containing media, p21 expression fell about as rapidly as it had risen, returning to pre-induction levels at about 24 hours after IPTG was removed (FIG. 2B).
# HT1080 p21-9 cells = experiment: Labeling index (3H-thymidine) and mitotic index; assay type: cell-based, human
# Experimental: Cell growth in the presence of IPTG was assayed in three ways: measuring ^3H-thymidine incorporation (termed the “labeling index”); observing the number of mitotic cells in the culture by microscopy (termed the “mitotic index”) and determining the distribution of the culture cells in different portions of the cell cycle (termed the “cell cycle distribution”).
# ^3H-thymidine incorporation assays were performed substantially as described by Dimri et al. (1995, Proc. Natl. Acad. Sci. USA 92: 9363-9367). Cells were cultured in the presence of ^3H-thymidine for 3 h, and then analyzed by autoradiography. DNA replication was determined by autoradiography ceased entirely by 9 hours after addition of IPTG to the culture media. The mitotic index was determined by observing cells microscopically and calculating the number of cells in mitosis after staining with 5 μg/mL 4,6-diamino-2-phenylindole (DAPI), and images were collected using a Leica DMIRB fluorescence microscope and Vaytek (Fairfield, Iowa) imaging system. Microscopically-detectable mitotic cells disappeared from these cultures by 14 hrs of IPTG treatment.
smiles,measurement,setting,value
"CC(C)S[C@@H]1O[C@H](CO)[C@H](O)[C@H](O)[C@H]1O [IPTG, isopropyl-β-thiogalactoside]",induction of promoters containing five or one NFκB site,NFκB-dependent promoter,dose-dependent induction
same,apoptosis in C8 cells,C8 cells,no effect
same,cells arrested in G1,HT1080 p16-5 cells,93%
same,cells arrested in G1,HT1080 p27-2 cells,89%
same,time of peak p21 expression post-induction,p21; 50 μM IPTG,about 24 hours
same,increase of p21 levels in IPTG-treated cells,p21; HT1080 p21-9 cells,15-20 fold
same,time of IPTG treatment by which mitotic cells disappeared,"HT1080 p21-9 cells; DAPI staining, microscopy",≤ 14 h
same,time after addition of IPTG by which DNA replication ceased entirely,HT1080 p21-9 cells; autoradiography of 3H-thymidine incorporation,≤ 9 h

# Source: patent US20030157704A1, “Reagents and methods for identifying and modulating expression of genes regulated by CDK inhibitors” (priority 2001, published 2003)
